In US20210043958A1, “AQUEOUS COMPOSITION AS ELECTROLYTE COMPRISING IONIC LIQUIDS OR LITHIUM SALTS” (KIST EUROPE FORSCHUNGSGESELLSCHAFT MBH, priority 2018, published 2021):
≈ marks a conversion by molar mass, not a printed value. Values belong to the compound of their own block, whether it stands above or below them.

Columns and labels:
[1] = Solubility of organic compounds in supporting electrolyte at room temperature; type: physicochemical; conditions: for solubility: thermodynamic from solid
Excerpt: The last recorded amount was recognized as the solubility of the organics.

[2] = Cyclic voltammetry in three-electrode cell (glassy carbon / Pt foil / Ag wire); type: physicochemical
Excerpt: FIGS. 2a and 2b compare cyclic voltammetry curves of 0.1 M 2-methoxyhydroquinone in pure water and other aqueous ionic liquid, aqueous lithium salt (molality: 10 m), with and without the addition of 1 M HCl. Potential sweep rate: 50 mV s^−1. Working electrode: glassy carbon; Counter electrode: Pt foil; Reference electrode: Ag wire.
FIG. 5a depicts the chemical structure of 2-[(2,5-dihydroxyphenyl)sulfanyl]ethan-1-aminium chloride. FIGS. 5b and 5c show the cyclic voltammetry curves of 0.1 M 2-[(2,5-dihydroxyphenyl) sulfanyl]ethan-1-amonium chloride in pure water and in 1 M HCl. Potential sweep rate: 20 mV s^−1. Working electrode: glassy carbon; Counter electrode: Pt foil; Reference electrode: Ag wire.
FIGS. 6a and 6b compare the cyclic voltammetry curves of 0.1 M 2-[(2,5-dihydroxyphenyl) sulfanyl]ethan-1-amonium chloride in concentrated LiTFSI and BMImCl without and with the addition of 1 M HCl. Potential sweep rate: 20 mV s^−1. Working electrode: glassy carbon; Counter electrode: Pt foil; Reference electrode: Ag wire.
CV measurements were performed in a three-electrode cell consisting of a glassy carbon rod working electrode, a platinum foil counter electrode and a silver wire quasi-reference electrode. CV measurements of 2-methoxyhydroquinone in water (FIG. 2a) and different aqueous ionic liquids and salt (FIG. 2b) were performed.
For the CV measurement in water, KCl was added as supporting salt. […] The average redox potential in water is 0.27 V vs. Ag but with large peak separation of 0.64 V (FIG. 2a).

[3] = 10 m BMImCl-H2O, aqueous with cosolvent or surfactant or cyclodextrin, 10 m BMImCl-H2O, a: without additive
[4] = 10 m LiTFSI-H2O, aqueous with cosolvent or surfactant or cyclodextrin, 10 m LiTFSI-H2O, a: without additive
[5] = 10 m LiTFSI-H2O, aqueous with cosolvent or surfactant or cyclodextrin, LiTFSI—H2O (10 m), neutral, no additive
[6] = 10 m TBACl-H2O, aqueous with cosolvent or surfactant or cyclodextrin, 10 m TBACl-H2O, a: without additive
[7] = water, H2O, a: without additive
[8] = 0.1 M in BMImCl—H2O, 20 mV s^−1
[9] = 0.1 M in LiTFSI—H2O, 20 mV s^−1
[10] = 10 m BMImCl-H2O, aqueous with cosolvent or surfactant or cyclodextrin, BMImCl—H2O (10 m / concentrated), neutral, no additive
[11] = 0.1 M in 10 m BMImCl—H2O, 50 mV s^−1
[12] = 0.1 M in 10 m LiTFSI—H2O, 50 mV s^−1
[13] = 0.1 M in 10 m TBACl—H2O, 50 mV s^−1
[14] = 0.1 M in water, KCl supporting salt, 50 mV s^−1
[15] = BMImCl—H2O, acidic conditions (1 M HCl)
[16] = LiTFSI—H2O, acidic conditions (1 M HCl)
[17] = TBACl—H2O, acidic conditions (1 M HCl)
[18] = water, acidic conditions (1 M HCl)

Compound: COc1cc(O)cc(OC)c1O [2,6-dimethoxyhydroquinone]
solubility ([1]; 10 m BMImCl-H2O with 1 M HCl, aqueous with cosolvent or surfactant or cyclodextrin, 10 m BMImCl-H2O, b: with 1 M HCl): < 100 mM | solubility [1, 3]: < 100 mM | solubility ([1]; 10 m LiTFSI-H2O with 1 M HCl, aqueous with cosolvent or surfactant or cyclodextrin, 10 m LiTFSI-H2O, b: with 1 M HCl): 500 mM (≈ 85.1 mg/mL) | solubility [1, 4]: 700 mM (≈ 119 mg/mL) | solubility [1, 5]: 700 mM (≈ 119 mg/mL) | solubility ([1]; 10 m TBACl-H2O with 1 M HCl, aqueous with cosolvent or surfactant or cyclodextrin, 10 m TBACl-H2O, b: with 1 M HCl): 100 mM (≈ 17 mg/mL) | solubility [1, 6]: 200 mM (≈ 34 mg/mL) | Solubility (in words) ([1]; BMImCl—H2O): limited | Solubility (in words) ([1]; TBACl—H2O): limited | solubility ([1]; acidic LiTFSI-H2O, aqueous with cosolvent or surfactant or cyclodextrin, acidic LiTFSI—H2O): 500 mM (≈ 85.1 mg/mL) | Solubility (in words) ([1]; water): insoluble | solubility ([1]; water with 1 M HCl, aqueous buffer, H2O, b: with 1 M HCl): < 100 mM | solubility [1, 7]: < 100 mM

Compound: Cl.NCCSc1cc(O)ccc1O [2-[(2,5-dihydroxyphenyl)sulfanyl]ethan-1-aminium chloride]
average oxidation and reduction potential ([2]; 0.1 M in BMImCl—H2O with addition of HCl (1 M), 20 mV s^−1): 0.61 V | average oxidation and reduction potential [2, 8]: 0.50 V vs. Ag | peak separation [2, 8]: 0.61 V | reduction of peak separation on addition of HCl ([2]; 0.1 M in BMImCl—H2O, with vs. without HCl (1 M)): 0.07 V | oxidation peak [2, 9]: 0.70 V vs. Ag | reduction peak [2, 9]: 0.08 V vs. Ag | redox reversibility ([2]; 0.1 M in pure water and in 1 M HCl, 20 mV s^−1): poor redox reversibility | stability and reversibility ([2]; in aqueous ionic liquids or lithium salt): excellent stability and reversibility | chemical and electrochemical stability ([2]; in water): chemically and electrochemically instable | solubility [1, 10]: 1200 mM | solubility ([1]; acidic BMImCl-H2O, aqueous with cosolvent or surfactant or cyclodextrin, acidic BMImCl—H2O): 900 mM | solubility ([1]; pure water): 2000 mM

Compound: CC[N+](CC)(CC)Cc1ccc2c(c1)C(=O)c1ccccc1C2=O.[Br-] [2-methanaminium-N,N,N-triethyl-9,10-anthraquinone bromide]
Solubility (in words) ([1]; 5 m LiTFSI—H2O): poor | solubility [1, 3]: < 100 mM | solubility ([1]; 10 m LiTFSI with triethanolamine, aqueous with cosolvent or surfactant or cyclodextrin, 10 m LiTFSI with 0.3 g triethanolamine per milliliter): 300 mM | solubility [1, 4]: 500 mM | solubility [1, 5]: 500 mM | solubility ([1]; 10 m TBACl-H2O with triethanolamine, aqueous with cosolvent or surfactant or cyclodextrin, 10 m TBACl-H2O, c: with 0.3 g triethanolamine per mL solvent): < 100 mM | solubility [1, 6]: < 100 mM | Solubility (in words) ([1]; 15 m LiTFSI—H2O): soluble | solubility ([1]; supporting electrolyte, aqueous with cosolvent or surfactant or cyclodextrin, 10 m BMImCl-H2O, c: with 0.3 g triethanolamine per mL solvent): < 100 mM | solubility ([1]; supporting electrolyte, aqueous with cosolvent or surfactant or cyclodextrin, 10 m LiTFSI-H2O, c: with 0.3 g triethanolamine per mL solvent): 300 mM | solubility ([1]; supporting electrolyte, aqueous with cosolvent or surfactant or cyclodextrin, H2O, c: with 0.3 g triethanolamine per mL solvent): < 100 mM | solubility [1, 7]: < 100 mM

Further lines, results first:

average redox potential [2, 11]: 0.51 V vs. Ag | peak separation [2, 11]: 0.53 V | average redox potential [2, 12]: 0.38 V vs. Ag | peak separation [2, 12]: 0.48 V | average redox potential [2, 13]: 0.54 V vs. Ag | polarization (peak separation) [2, 13]: 0.87 V | average redox potential [2, 14]: 0.27 V vs. Ag | peak separation [2, 14]: 0.64 V | peak separation ([2]; 10 m BMImCl—H2O with 1 M H3PO4): 0.42 V | average redox potential ([2]; 10 m BMImCl—H2O with H3PO4 from 1 M to 3 M): 0.50 V vs. Ag | peak separation [2, 15]: 0.30 V | redox potential [2, 15]: 0.58 V vs. Ag | peak separation [2, 16]: 0.38 V | redox potential [2, 16]: 0.55 V vs. Ag | peak separation [2, 17]: 0.54 V | redox potential [2, 17]: 0.58 V vs. Ag | peak separation [2, 18]: 0.40 V | redox potential [2, 18]: 0.35 V vs. Ag | solubility [1, 10]: 6000 mM (≈ 841 mg/mL) | solubility [1, 5]: 4200 mM (≈ 589 mg/mL) | solubility ([1]; pure water, water): 1800 mM (≈ 252 mg/mL)
Compound: COc1cc(O)ccc1O [2-methoxyhydroquinone]

solubility [1, 3]: 4000 mM (≈ 609 mg/mL) | solubility [1, 10]: 4000 mM (≈ 609 mg/mL) | solubility [1, 4]: 4000 mM (≈ 609 mg/mL) | solubility [1, 5]: 4000 mM (≈ 609 mg/mL) | solubility [1, 6]: 4000 mM (≈ 609 mg/mL) | solubility ([1]; TBACl-H2O, aqueous with cosolvent or surfactant or cyclodextrin, TBACl—H2O): 4000 mM (≈ 609 mg/mL) | Solubility (in words) ([1]; water): slightly soluble | solubility [1, 7]: < 100 mM
Compound: COc1cc(C=O)ccc1O [vanillin, Vanillin]
